Laboratory results reported in patent US12006328B2, “Thieno[2,3-d]pyrimidin-4-one derivatives as NMDAR modulators and uses related thereto” (Emory University, priority 2014, dated 2024).

Experiments:
[1] = molecular target: GluN2B-containing NMDA receptors (Homo sapiens, UniProt Q13224); test: Two-electrode voltage-clamp recordings from Xenopus laevis oocytes, GluN2B; format: cell-based; conditions: for % response at 100 μM, Glu N2B: Table 6, printed in the IC50 column, 100 μM compound; for EC50 / maximal potentiation Glu N2B: Table 1; for EC50: glutamate 100 μM, glycine 30 μM, Hill fit, read-out: EC50 Glu N2B; for maximal potentiation Glu N2B: in brackets after EC50; for maximal potentiation Glu N2B / I10 μM/ICONTROL (mean ± SEM, %) Glu N2B: percent of response without compound; for I10 μM/ICONTROL (mean ± SEM, %) Glu N2B: 10 μM test compound with glutamate 100 μM and glycine 30 μM, Tables 1-5
Sequence of GluN2B-containing NMDA receptors (Q13224 27-1484, other chains not shown): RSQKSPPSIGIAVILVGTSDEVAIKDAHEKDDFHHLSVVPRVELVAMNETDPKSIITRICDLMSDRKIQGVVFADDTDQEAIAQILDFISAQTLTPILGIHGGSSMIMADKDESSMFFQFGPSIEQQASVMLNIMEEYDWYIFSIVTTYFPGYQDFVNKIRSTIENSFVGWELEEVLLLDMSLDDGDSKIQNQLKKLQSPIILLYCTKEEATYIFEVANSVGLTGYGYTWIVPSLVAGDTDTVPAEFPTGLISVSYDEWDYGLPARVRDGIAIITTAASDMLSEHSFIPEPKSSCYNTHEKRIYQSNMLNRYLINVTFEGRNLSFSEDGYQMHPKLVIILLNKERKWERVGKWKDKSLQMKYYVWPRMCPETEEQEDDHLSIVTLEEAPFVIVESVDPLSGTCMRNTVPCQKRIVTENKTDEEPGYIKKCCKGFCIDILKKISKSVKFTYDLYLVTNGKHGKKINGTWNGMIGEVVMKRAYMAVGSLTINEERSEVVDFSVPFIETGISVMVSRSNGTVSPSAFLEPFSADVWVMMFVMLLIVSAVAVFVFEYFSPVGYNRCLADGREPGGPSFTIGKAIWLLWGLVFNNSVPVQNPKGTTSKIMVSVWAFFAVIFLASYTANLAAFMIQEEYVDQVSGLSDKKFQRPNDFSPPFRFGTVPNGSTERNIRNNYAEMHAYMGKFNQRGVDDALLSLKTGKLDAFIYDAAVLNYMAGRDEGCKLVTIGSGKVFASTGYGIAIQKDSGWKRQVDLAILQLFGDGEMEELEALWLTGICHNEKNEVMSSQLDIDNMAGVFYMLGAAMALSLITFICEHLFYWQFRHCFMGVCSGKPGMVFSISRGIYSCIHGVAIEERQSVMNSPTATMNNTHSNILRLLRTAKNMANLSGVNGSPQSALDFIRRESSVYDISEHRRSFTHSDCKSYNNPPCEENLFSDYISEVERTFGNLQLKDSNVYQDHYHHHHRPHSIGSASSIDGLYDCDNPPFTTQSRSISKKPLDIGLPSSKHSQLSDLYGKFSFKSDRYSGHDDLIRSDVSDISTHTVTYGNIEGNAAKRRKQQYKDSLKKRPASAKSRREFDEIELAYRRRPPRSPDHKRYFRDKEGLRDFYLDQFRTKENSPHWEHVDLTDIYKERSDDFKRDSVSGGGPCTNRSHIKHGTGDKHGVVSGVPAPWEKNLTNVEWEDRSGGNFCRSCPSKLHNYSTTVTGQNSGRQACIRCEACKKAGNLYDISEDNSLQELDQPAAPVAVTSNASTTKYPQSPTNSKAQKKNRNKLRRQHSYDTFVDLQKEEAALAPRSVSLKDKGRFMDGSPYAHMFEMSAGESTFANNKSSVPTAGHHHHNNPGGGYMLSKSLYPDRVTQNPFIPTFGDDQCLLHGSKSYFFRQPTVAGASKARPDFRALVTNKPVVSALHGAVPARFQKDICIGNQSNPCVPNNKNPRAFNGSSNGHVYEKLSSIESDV
Method: (§1) Xenopus laevis oocytes were injected with cRNA encoding the NMDA receptor subunits. Two to seven days after injection, two-electrode voltage-clamp recordings were performed. Extracellular solutions were made from a solutions containing (in mM) 90 NaCl, 3 KCl, 10 HEPES, 0.5 BaCl2, 0.01 EDTA (pH 7.4 with NaOH). Voltage and current electrodes were filled with 0.3 M and 3.0 M KCl, respectively.
(§2) Potency was determined by adding increasing concentrations of test compound to saturating concentrations of glutamate (100 μM) and glycine (30 μM), and the response amplitude measured. The response in the presence of each concentration of test compound plus agonists was expressed as a percent of the response in the absence of test compound.

[2] = molecular target: GluN2D-containing NMDA receptors (Homo sapiens, UniProt O15399+Q05586); test: Two-electrode voltage-clamp recordings from Xenopus laevis oocytes, GluN2D; format: cell-based; conditions: Table 6; read-out: IC50 (μM) Glu N2D
Method: as §1, §2

[3] = molecular target: GluN2C-containing NMDA receptors (Homo sapiens, UniProt Q05586+Q14957); test: Two-electrode voltage-clamp recordings from Xenopus laevis oocytes, GluN2C; format: cell-based; conditions: Table 6; read-out: IC50 (μM) Glu N2C
Sequence of GluN2C-containing NMDA receptors (Homo sapiens, UniProt Q05586+Q14957) (Q14957 20-1233, other chains not shown): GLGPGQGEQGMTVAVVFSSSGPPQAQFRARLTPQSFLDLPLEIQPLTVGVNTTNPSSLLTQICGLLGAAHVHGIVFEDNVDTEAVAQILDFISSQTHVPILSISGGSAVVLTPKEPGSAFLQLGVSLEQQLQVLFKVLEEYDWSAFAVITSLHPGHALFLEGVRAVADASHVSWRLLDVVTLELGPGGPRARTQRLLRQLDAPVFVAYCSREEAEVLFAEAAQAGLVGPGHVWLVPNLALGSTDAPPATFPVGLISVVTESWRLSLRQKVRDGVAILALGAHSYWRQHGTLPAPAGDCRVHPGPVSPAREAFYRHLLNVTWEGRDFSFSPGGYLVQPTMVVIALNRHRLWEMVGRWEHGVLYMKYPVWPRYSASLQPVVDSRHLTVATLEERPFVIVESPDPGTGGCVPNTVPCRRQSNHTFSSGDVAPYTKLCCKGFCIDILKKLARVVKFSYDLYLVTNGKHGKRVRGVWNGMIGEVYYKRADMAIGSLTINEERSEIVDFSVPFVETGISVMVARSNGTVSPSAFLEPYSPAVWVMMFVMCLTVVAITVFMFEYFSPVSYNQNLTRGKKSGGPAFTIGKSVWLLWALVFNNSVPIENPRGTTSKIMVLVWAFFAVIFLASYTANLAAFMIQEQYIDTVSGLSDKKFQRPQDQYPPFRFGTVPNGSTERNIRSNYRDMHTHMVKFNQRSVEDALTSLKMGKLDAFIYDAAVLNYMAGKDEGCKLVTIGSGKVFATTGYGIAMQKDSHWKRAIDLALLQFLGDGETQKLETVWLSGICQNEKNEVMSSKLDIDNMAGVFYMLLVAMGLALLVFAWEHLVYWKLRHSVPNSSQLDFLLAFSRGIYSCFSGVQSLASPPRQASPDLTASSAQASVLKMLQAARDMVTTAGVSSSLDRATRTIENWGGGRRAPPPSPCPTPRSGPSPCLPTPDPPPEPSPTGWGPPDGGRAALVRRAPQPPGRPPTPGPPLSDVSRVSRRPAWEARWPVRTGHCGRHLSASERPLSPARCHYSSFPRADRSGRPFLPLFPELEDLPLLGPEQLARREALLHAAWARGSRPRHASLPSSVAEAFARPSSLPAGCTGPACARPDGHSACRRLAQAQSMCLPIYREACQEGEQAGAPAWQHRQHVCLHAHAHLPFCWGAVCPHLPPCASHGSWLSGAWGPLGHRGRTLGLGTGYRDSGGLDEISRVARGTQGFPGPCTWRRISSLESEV
Method: as §1, §2

[4] = molecular target: GluN2D-containing NMDA receptors (Homo sapiens, UniProt O15399); test: Two-electrode voltage-clamp recordings from Xenopus laevis oocytes, GluN2D; format: cell-based; conditions: for EC50 / maximal potentiation Glu N2D: Table 1; for EC50: glutamate 100 μM, glycine 30 μM, Hill fit, read-out: EC50 Glu N2D; for maximal potentiation Glu N2D: in brackets after EC50; for maximal potentiation Glu N2D / I10 μM/ICONTROL (mean ± SEM, %) Glu N2D: percent of response without compound; for I10 μM/ICONTROL (mean ± SEM, %) Glu N2D: 10 μM test compound with glutamate 100 μM and glycine 30 μM, Tables 1-5
Method: as §1, §2

[5] = molecular target: GluN2C-containing NMDA receptors (Homo sapiens, UniProt Q14957); test: Two-electrode voltage-clamp recordings from Xenopus laevis oocytes, GluN2C; format: cell-based; conditions: for EC50 / maximal potentiation Glu N2C: Table 1; for EC50: glutamate 100 μM, glycine 30 μM, Hill fit, read-out: EC50 Glu N2C; for maximal potentiation Glu N2C: in brackets after EC50; for maximal potentiation Glu N2C / I10 μM/ICONTROL (mean ± SEM, %) Glu N2C: percent of response without compound; for I10 μM/ICONTROL (mean ± SEM, %) Glu N2C: 10 μM test compound with glutamate 100 μM and glycine 30 μM, Tables 1-5
Sequence of GluN2C-containing NMDA receptors (Homo sapiens, UniProt Q14957) (Q14957 20-1233, other chains not shown): as above
Method: as §1, §2

hippocampal CA1 neurons = test: Hippocampal slice whole cell recordings; format: cell-based, mice
Source text: Coronal hippocampal brain slices were made from mice (p7-14) using a vibrotome. During slice cutting and recovery, the slices were bathed in an artificial cerebral spinal fluid (slicing aCSF—containing, in mM: 75 NaCl, 2.5 KCl, 1.25 NaH2PO4, 25 NaHCO3, 5 MgCl2 or MgSO4, 0.5 CaCl2, 20 Glucose, 70 Sucrose). Whole cell recordings were made using a different aCSF (recording aCSF—containing, in mM: 130 NaCl, 2.5 KCl, 1.25 NaH2PO4, 25 NaHCO3, 0.1 MgCl2 or MgSO4, 2.5 CaCl2, 20 Glucose), and using a CsGlu internal solution containing, following (in mM): 110 d-gluconic acid, 110 CsOH, 30 CsCl, 5 HEPES, 4 NaCl, 0.5 CaCl2, 2 MgCl2, 5 BAPTA, 2 Na2ATP, and 0.3 NaGTP (pH 7.35).

[6] = molecular target: T1, GluN1/GluN2B expressing HEK293 cells (Homo sapiens, UniProt Q13224); test: Rapid solution exchange patch clamp in transfected HEK293 cells; format: cell-based
T1 construct: expressed in transfected cells; host or cells: HEK293
T1 sequence (Q13224 27-1484, other chains not shown): as the sequence (Q13224 27-1484, other chains not shown) above
Method: HEK293 cells were transfected used the CaPO4 method. Cells were patched 1-3 days later and lifted into the flow from a theta tube perfusion. […] NMDA receptor currents were activated using 100 μM glutamate and 30 μM glycine.

[7] = 1622-35 10 μM versus control, N 4

SMILES	EC50 [1] [µM]	maximal potentiation Glu N2B [1] [%]	EC50 [4] [µM]	maximal potentiation Glu N2D [4] [%]	EC50 [5] [µM]	maximal potentiation Glu N2C [5] [%]	I10 μM/ICONTROL (mean ± SEM, %) Glu N2B [1] [%]	I10 μM/ICONTROL (mean ± SEM, %) Glu N2D [4] [%]	I10 μM/ICONTROL (mean ± SEM, %) Glu N2C [5] [%]	also measured
COCCN1Cc2c(sc(C)c2C)N(C(=O)c2ccc(OC)cc2)C1	–	–	–	–	–	–	–	–	–	% response at 100 μM, Glu N2B [1]: 86% response at 100 μM; IC50 [2]: 109 µM; IC50 [3]: 46 µM
COc1ccc(C(=O)N2CN(CC3CCCO3)Cc3c2sc(C)c3C)cc1 (stereo not drawn)	–	–	–	–	–	–	–	–	–	% response at 100 μM, Glu N2B [1]: 92% response at 100 μM; IC50 [2]: 35 µM; IC50 [3]: 6 µM
Cc1sc2ncn(CC(=O)N3CCCC3)c(=O)c2c1-c1ccc(Br)cc1 [4-Br—Ph / Me]	11.3	163	79	400	60	449	–	–	–	–
O=C(Cn1cnc2scc(-c3ccc(Cl)cc3)c2c1=O)N1CCCC1 [4-Cl—Ph / H]	46	314	72	512	76	770	–	–	–	–
Cc1sc2ncn(CC(=O)N3CCCC3)c(=O)c2c1-c1ccc(Cl)cc1 [4-Cl—Ph / Me]	11	223	23	381	15	347	–	–	–	–
CCc1ccc(-c2csc3ncn(CC(=O)N4CCCC4)c(=O)c23)cc1 [4-Et—Ph / H]	39	223	58	355	66	417	–	–	–	–
Cc1sc2ncn(CC(=O)N3CCCC3)c(=O)c2c1-c1ccc(F)cc1 [4-F—Ph / Me]	54	213	124	428	81	448	–	–	–	–
O=C(Cn1cnc2scc(-c3ccc(I)cc3)c2c1=O)N1CCCC1 [4-I—Ph / H]	75	262	45	206	89	369	121 ± 5.7	101 ± 1.8	110 ± 2.1	–
CSc1ccc(-c2csc3ncn(CC(=O)N4CCCC4)c(=O)c23)cc1 [4-MeS—Ph / H]	–	–	–	–	–	–	102 ± 4.6	96 ± 2.6	99 ± 2.5	–
Cc1ccc(-c2csc3ncn(CC(=O)N4CCCC4)c(=O)c23)cc1 [4-Me—Ph / H]	109	226	170	560	207	597	–	–	–	–
[N-]=[N+]=Nc1ccc(-c2csc3ncn(CC(=O)N4CCCC4)c(=O)c23)cc1 [4-N3—Ph / H]	88	353	134	730	102	918	134 ± 6.7	147 ± 6.3	166 ± 7.2	–
Cc1sc2ncn(CC(=O)N3CCCC3)c(=O)c2c1-c1ccc(N=[N+]=[N-])cc1 [4-N3—Ph / Me]	54	304	50	426	54	485	135 ± 5.5	128 ± 2.6	146 ± 6.4	–
Cc1sc2ncn(CC(=O)N3CCCC3)c(=O)c2c1-c1ccc(N)cc1 [4-NH2—Ph / Me]	–	–	–	–	–	–	104 ± 1.7	103 ± 2.2	116 ± 4.5	–
CCOc1ccc(-c2c(C)sc3ncn(CC(=O)N4CCCC4)c(=O)c23)cc1 [4-OEt—Ph / Me]	15	147	18	232	18	186	–	–	–	–
Cc1sc2ncn(CC(=O)N3CCCC3)c(=O)c2c1-c1ccc(O)cc1 [4-OH—Ph / Me]	–	–	–	–	–	–	82 ± 1.0	99 ± 2.5	98 ± 2.3	–
CC(C)c1ccc(-c2csc3ncn(CC(=O)N4CCCC4)c(=O)c23)cc1 [4-^iPr—Ph / H]	33	174	–	–	–	–	121 ± 6.9	98 ± 1.4	100 ± 2.5	–
O=C(Cn1cnc2sc3c(c2c1=O)CCCC3)c1ccc([N+](=O)[O-])cc1 [Compound 4-NO2]	–	–	–	–	–	–	94 ± 1.3	97 ± 1.1	93 ± 2.0	–
Cc1sc2ncn(CC(=O)N3CCCC3)c(=O)c2c1-c1cccc(I)c1 [Compound 1622-35]	–	–	–	–	–	–	–	–	–	effect on CA1 EPSPs during theta burst stimulation (hippocampal CA1 neurons): enhances the NMDA components of CA1 EPSPs; effect on sEPSCs in hippocampal pyramidal neurons (hippocampal CA1 neurons): potentiates only the NMDA component of the sEPSCs; total charge transfer of EPSCs (hippocampal CA1 neurons; 10 μM 1622-35): 2.3 times greater than control; time course of excitatory post synaptic currents (hippocampal CA1 neurons; 10 μM 1622-35, n=4, control 280±30 ms): 970 ± 220 ms; effect on channel function and deactivation, excised outside-out patch ([6]; 30 μM 1622-35): increases in GluN1/GluN2 channel function and slows deactivation; Decay Time Constant, Fold Increase [6, 7]: 5.7 ± 1.9 fold; Peak Amplitude, Fold Increase [6, 7]: 3.4 ± 0.6 fold; Peak Amplitude (pA) ([6]; 1622-35 10 μM, 100 μM glutamate, 30 μM glycine, control 628 ± 237, N 4): 1694 ± 417 pA; Decay Time Constant ([6]; 1622-35 10 μM, 100 μM glutamate, 30 μM glycine, control 681 ± 142, N 4): 3037 ± 166 ms; prolonged deactivation of NMDA-Rs ([6]; rapid solution exchange electrophysiology): roughly 3 fold
Cc1sc2ncn(CC(=O)N3CCCC3)c(=O)c2c1-c1ccccc1 [Ph / Me]	15	153	12	262	14	168	115 ± 5.4	148 ± 9.1	120 ± 3.7	–
C#CCn1cnc2sc(C)c(-c3cccc(Cl)c3)c2c1=O [—C≡CH]	–	–	–	–	–	–	116 ± 4.0	98 ± 4.3	98 ± 7.9	–
